The species entered for assay [1] is Oryctolagus cuniculus. In words: Inhibition of Protein phosphatase 1 at 0.1 mM.
The species named for assay [2] is Oryctolagus cuniculus. As to the kind of experiment: Inhibition of Protein phosphatase 1 at 1 mM.
Assay [3] is filed under the species Oryctolagus cuniculus. As to the kind of experiment: Inhibition of Protein phosphatase 2A1 (PP2A1) at 0.1 mM.
Assay [4] is filed under the species Oryctolagus cuniculus. As to the kind of experiment: Inhibition of Protein phosphatase 2A1 (PP2A1) at 1 mM.
The species entered for assay [5] is Bos taurus. In words: Inhibition of Protein phosphatase 2B (PP2B) at 0.1 mM.
The species entered for assay [6] is Bos taurus. In words: Inhibition of Protein phosphatase 2B (PP2B) at 1 mM.

In general, inhibition refers to the share of the control response that was lost under treatment.

For `O=C1OC(=O)C2C3C=CC(O3)C12` (centres undefined), the inhibition in the assay filed under Oryctolagus cuniculus [1] was 95%; in the assay filed under Oryctolagus cuniculus [2], 98%; in the assay listed under Oryctolagus cuniculus [3], 95%; in the assay filed under Oryctolagus cuniculus [4] it was 95%; in the assay filed under Bos taurus [5], 40%; in the assay filed under Bos taurus [6], 99%.

For the compound `CC(=O)OCC1=CC2OC1C(C(=O)O)C2C(=O)O` (centres undefined), the inhibition in the assay filed under Oryctolagus cuniculus [1] turned out to be 50%; in the assay filed under Oryctolagus cuniculus [2], 80%; in the assay filed under Oryctolagus cuniculus [3] it was 40%; in the assay listed under Oryctolagus cuniculus [4], 90%; in the assay listed under Bos taurus [5], 20%; in the assay listed under Bos taurus [6] it was 89%.

For the compound `O=C1OC(=O)C2C3OC(C=C3COC3CCCCC3)C12` (centres undefined), the inhibition in the assay listed under Oryctolagus cuniculus [1] was 50%; in the assay listed under Oryctolagus cuniculus [2], 60%; in the assay filed under Oryctolagus cuniculus [3] it was 80%; in the assay filed under Oryctolagus cuniculus [4] it was 100%; in the assay listed under Bos taurus [5], 30%; in the assay listed under Bos taurus [6] it was 70%.

Regarding `CC(=O)OCC12C=CC(O1)C1C(=O)OC(=O)C12` (centres undefined), the inhibition in the assay listed under Oryctolagus cuniculus [1] was found to be 5%; in the assay listed under Oryctolagus cuniculus [2] it was 30%; in the assay listed under Oryctolagus cuniculus [3], 5%; in the assay filed under Oryctolagus cuniculus [4] it was 40%; in the assay filed under Bos taurus [5] it was 10%; in the assay filed under Bos taurus [6], 50%.

For the compound `O=C1OC(=O)C2C1C1C=CC2(CO)O1` (centres undefined), the inhibition in the assay listed under Oryctolagus cuniculus [1] came out at 8%; in the assay filed under Oryctolagus cuniculus [2], 18%; in the assay filed under Oryctolagus cuniculus [3] it was 5%; in the assay filed under Oryctolagus cuniculus [4], 12%; in the assay filed under Bos taurus [5], 10%; in the assay listed under Bos taurus [6], 50%.

For the compound `CC(=O)OCC1CC2OC1C1C(=O)OC(=O)C21` (centres undefined), the inhibition in the assay listed under Oryctolagus cuniculus [1] was determined as 90%; in the assay listed under Oryctolagus cuniculus [2], 100%; in the assay filed under Oryctolagus cuniculus [3], 70%; in the assay listed under Oryctolagus cuniculus [4], 98%; in the assay listed under Bos taurus [5] it was 20%; in the assay listed under Bos taurus [6] it was 85%.

On to `O=C(O)C1C2CCC3(COC(=O)C13)O2` (centres undefined), for which the inhibition in the assay listed under Oryctolagus cuniculus [1] is 9%; in the assay listed under Oryctolagus cuniculus [2], 20%; in the assay listed under Oryctolagus cuniculus [3], 8%; in the assay filed under Oryctolagus cuniculus [4], 8%; in the assay filed under Bos taurus [5], 18%; in the assay listed under Bos taurus [6] it was 20%.

For `CC(=O)OCC12C=CC(O1)C(C(=O)O)C2C(=O)O` (centres undefined), the inhibition in the assay filed under Oryctolagus cuniculus [1] is 5%; in the assay listed under Oryctolagus cuniculus [2], 40%; in the assay listed under Oryctolagus cuniculus [3] it was 0%; in the assay filed under Oryctolagus cuniculus [4], 25%; in the assay filed under Bos taurus [5], 10%; in the assay filed under Bos taurus [6], 60%.

`O=C1OC(=O)C2C3OC(CC3COC3CCCCC3)C12` (centres undefined): the inhibition was found to be 70% in the assay listed under Oryctolagus cuniculus [1]; 90% in the assay listed under Oryctolagus cuniculus [2]; 75% in the assay filed under Oryctolagus cuniculus [3]; 100% in the assay filed under Oryctolagus cuniculus [4]; 40% in the assay filed under Bos taurus [5]; 100% in the assay filed under Bos taurus [6].

In the case of `CC(=O)OCC1=CC2OC1C1C(=O)OC(=O)C21` (centres undefined), the inhibition in the assay listed under Oryctolagus cuniculus [1] was 59%; in the assay filed under Oryctolagus cuniculus [2], 92%; in the assay listed under Oryctolagus cuniculus [3], 60%; in the assay filed under Oryctolagus cuniculus [4], 98%; in the assay listed under Bos taurus [5], 25%; in the assay listed under Bos taurus [6], 90%.

Turning to `CC12CCC(C)(O1)C(C(=O)O)C2C(=O)O` (centres undefined), the inhibition in the assay filed under Oryctolagus cuniculus [1] amounted to 0%; in the assay filed under Oryctolagus cuniculus [2] it was 1%; in the assay filed under Oryctolagus cuniculus [3] it was 0%; in the assay filed under Oryctolagus cuniculus [4], 2%; in the assay listed under Bos taurus [5] it was 17%; in the assay listed under Bos taurus [6], 18%.

As for `O=C1OC(=O)C2C3CCC(O3)C12` (centres undefined), the inhibition in the assay listed under Oryctolagus cuniculus [1] amounted to 95%; in the assay filed under Oryctolagus cuniculus [2], 100%; in the assay filed under Oryctolagus cuniculus [3] it was 94%; in the assay filed under Oryctolagus cuniculus [4], 100%; in the assay listed under Bos taurus [5] it was 35%; in the assay listed under Bos taurus [6], 98%.

As for `C[C@@]12C(=O)OC(=O)[C@]1(C)C1CCC2O1`, the inhibition in the assay listed under Oryctolagus cuniculus [1] is 85%; in the assay filed under Oryctolagus cuniculus [2], 90%; in the assay filed under Oryctolagus cuniculus [3], 85%; in the assay listed under Oryctolagus cuniculus [4], 98%; in the assay listed under Bos taurus [5], 15%; in the assay filed under Bos taurus [6], 38%.

For `CC(=O)OCC12CCC(O1)C1C(=O)OC(=O)C12` (centres undefined), the inhibition in the assay listed under Oryctolagus cuniculus [1] is 20%; in the assay filed under Oryctolagus cuniculus [2], 70%; in the assay filed under Oryctolagus cuniculus [3], 5%; in the assay listed under Oryctolagus cuniculus [4], 50%; in the assay listed under Bos taurus [5], 30%; in the assay filed under Bos taurus [6] it was 45%.

The record behind these values is ChEMBL document CHEMBL1130480, “Structure-activity relationship of cantharidin derivatives to protein phosphatases 1, 2A1, and 2B” (Bioorg Med Chem Lett, 1997).
